Molecules are shown by their SMILES.

The record followed here is patent US8841309B2, “Substituted pyrazines and their use in the treatment of disease” (Boehringer Ingelheim International GmbH, priority 2012, dated 2014).

The target of this assay is T1, ENaC (Mus musculus, UniProt Q61180+Q9WU38+Q9WU39).
T1 construct: Mouse kidney M-1 cells were cultivated in DMEM containing 5% FCS and 5 μM dexamethasone; endogenous in cells; host or cells: mouse kidney M-1 cells
T1 sequence (Q61180 1-699): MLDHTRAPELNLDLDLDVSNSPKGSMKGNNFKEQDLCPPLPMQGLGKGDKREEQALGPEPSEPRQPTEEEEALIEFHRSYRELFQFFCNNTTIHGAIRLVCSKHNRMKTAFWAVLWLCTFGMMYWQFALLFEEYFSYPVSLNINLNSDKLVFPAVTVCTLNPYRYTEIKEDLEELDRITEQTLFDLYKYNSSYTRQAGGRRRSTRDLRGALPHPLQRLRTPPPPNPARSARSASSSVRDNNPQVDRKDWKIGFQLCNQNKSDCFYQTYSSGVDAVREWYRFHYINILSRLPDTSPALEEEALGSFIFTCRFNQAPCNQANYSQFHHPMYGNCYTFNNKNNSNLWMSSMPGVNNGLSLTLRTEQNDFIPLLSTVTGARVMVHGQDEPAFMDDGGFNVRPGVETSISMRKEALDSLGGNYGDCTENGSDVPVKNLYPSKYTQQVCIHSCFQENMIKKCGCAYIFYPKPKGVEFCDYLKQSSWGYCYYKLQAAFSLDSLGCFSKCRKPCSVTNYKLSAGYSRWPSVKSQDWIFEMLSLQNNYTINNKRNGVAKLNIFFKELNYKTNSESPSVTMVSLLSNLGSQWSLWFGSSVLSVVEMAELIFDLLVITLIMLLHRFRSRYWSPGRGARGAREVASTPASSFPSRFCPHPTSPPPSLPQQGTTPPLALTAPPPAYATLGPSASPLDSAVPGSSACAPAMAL
T1 sequence (Q9WU38 1-638): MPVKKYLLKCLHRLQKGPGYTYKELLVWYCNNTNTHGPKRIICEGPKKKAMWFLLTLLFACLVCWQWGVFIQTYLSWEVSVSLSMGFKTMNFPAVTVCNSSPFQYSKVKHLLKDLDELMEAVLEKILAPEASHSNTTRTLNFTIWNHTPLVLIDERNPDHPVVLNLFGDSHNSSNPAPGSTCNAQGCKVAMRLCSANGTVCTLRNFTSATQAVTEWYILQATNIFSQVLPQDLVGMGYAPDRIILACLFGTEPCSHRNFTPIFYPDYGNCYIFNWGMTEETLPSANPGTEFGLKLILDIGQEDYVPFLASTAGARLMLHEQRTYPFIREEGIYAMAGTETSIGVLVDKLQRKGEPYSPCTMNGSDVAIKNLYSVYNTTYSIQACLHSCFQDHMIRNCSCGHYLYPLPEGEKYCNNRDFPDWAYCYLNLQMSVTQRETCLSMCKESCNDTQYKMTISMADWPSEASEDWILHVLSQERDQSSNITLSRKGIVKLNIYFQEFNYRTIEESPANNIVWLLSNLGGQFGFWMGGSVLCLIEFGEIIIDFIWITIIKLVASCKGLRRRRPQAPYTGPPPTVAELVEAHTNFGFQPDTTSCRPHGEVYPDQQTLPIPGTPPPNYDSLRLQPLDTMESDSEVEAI
T1 sequence (Q9WU39 1-655): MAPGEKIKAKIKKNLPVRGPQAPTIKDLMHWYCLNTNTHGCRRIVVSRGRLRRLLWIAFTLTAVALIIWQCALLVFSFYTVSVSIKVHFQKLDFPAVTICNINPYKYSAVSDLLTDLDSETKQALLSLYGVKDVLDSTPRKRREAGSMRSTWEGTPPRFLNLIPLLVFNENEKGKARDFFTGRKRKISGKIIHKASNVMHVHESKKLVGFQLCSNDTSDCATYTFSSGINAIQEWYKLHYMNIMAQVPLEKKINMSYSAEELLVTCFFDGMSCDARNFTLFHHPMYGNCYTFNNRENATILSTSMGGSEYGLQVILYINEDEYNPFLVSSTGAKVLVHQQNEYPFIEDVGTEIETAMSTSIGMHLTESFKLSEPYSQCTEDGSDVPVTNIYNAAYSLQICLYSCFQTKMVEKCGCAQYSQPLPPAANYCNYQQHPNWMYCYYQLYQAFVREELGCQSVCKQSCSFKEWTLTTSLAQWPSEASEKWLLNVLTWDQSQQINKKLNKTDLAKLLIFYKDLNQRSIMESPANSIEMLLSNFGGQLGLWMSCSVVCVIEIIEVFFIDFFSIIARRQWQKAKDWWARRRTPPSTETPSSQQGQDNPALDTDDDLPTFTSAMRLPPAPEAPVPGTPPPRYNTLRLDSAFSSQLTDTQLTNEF
Kind of assay: Ussing chamber: short circuit current (I_sc) in mouse kidney M-1 cells, amiloride-sensitive. Particulars: compound applied to apical solution, 37° C. The class given is cell-based. The procedure: Ussing Chamber: Mouse kidney M-1 cells were cultivated in DMEM containing 5% FCS and 5 μM dexamethasone for 10 to 12 days on polyester transwell filters. Filters were inserted into a teflon-coated well-plate which fit into the in-house ussing chamber system. Prior to measurement the medium of M-1 cells was replaced with Caco-2 transport buffer (Invitrogen, Germany). During measurements, the Ussing chamber temperature was kept at 37° C. Short circuit currents (I_sc) were measured in the voltage-clamp mode using an in-house built amplifier (Boehringer Ingelheim, Biberach) with the software package Lab View for data acquisition and analysis. The transepithelial electrical resistance (TEER) was determined by the application of voltage steps of ±5 mV every 5 sec. Compounds were administered at a final concentration of 3 μM or at increasing concentrations (1-3-10 μM) to the apical solution. At the end of each experiment the amiloride sensitive I_SC was measured by adding 3 μM amiloride to the apical compartment. Results are expressed as inhibition in percent of the amiloride effect or as IC50.
Take `NC(=NC(=O)c1nc(Cl)c(N)nc1N)N[C@@H]1C[N+]2(Cc3ccc(CO)cc3)CCC1CC2` [Example 17]: the IC50 – broadly, the point on the concentration scale where inhibition reaches its midpoint – is 52 nM. In other words, the double-digit nanomolar range.
`NC(=NC(=O)c1nc(Cl)c(N)nc1N)N[C@@H]1C[N+]2(Cc3ccc(C(F)(F)F)cc3)CCC1CC2` [Example 18] had an IC50 of 43 nM.
On to `NC(=NC(=O)c1nc(Cl)c(N)nc1N)N[C@@H]1C[N+]2(Cc3ccc(OCc4ccccc4)cc3)CCC1CC2` [Example 19], for which the IC50 was found to be 32 nM. The IC50 values of the last two molecules are within 1.5-fold of each other.
`NC(=NC(=O)c1nc(Cl)c(N)nc1N)N[C@@H]1C[N+]2(Cc3nc4ccccc4s3)CCC1CC2` [Example 20] registered an IC50 of 29 nM.
In the case of `CS(=O)(=O)c1ccc(C[N+]23CCC(CC2)[C@H](NC(N)=NC(=O)c2nc(Cl)c(N)nc2N)C3)cc1` [Example 21] it was 176 nM; in that of `COc1ccccc1C[N+]12CCC(CC1)[C@H](NC(N)=NC(=O)c1nc(Cl)c(N)nc1N)C2` [Example 22], 92 nM.
Molecule `CC#CC[N+]12CCC(CC1)[C@H](NC(N)=NC(=O)c1nc(Cl)c(N)nc1N)C2` [Example 23] registered an IC50 of 172 nM.
Molecule `CCNC(=O)C[N+]12CCC(CC1)[C@H](NC(N)=NC(=O)c1nc(Cl)c(N)nc1N)C2` [Example 24] showed an IC50 of 56 nM.
On to `NC(=O)c1ccc(C[N+]23CCC(CC2)[C@H](NC(N)=NC(=O)c2nc(Cl)c(N)nc2N)C3)cc1` [Example 25], for which inhibition was half-maximal at 693 nM (IC50).
In the case of `NC(=NC(=O)c1nc(Cl)c(N)nc1N)N[C@@H]1C[N+]2(Cc3ccc(F)c(Cl)c3)CCC1CC2` [Example 26], the IC50 is 13 nM.
In the case of `NC(=NC(=O)c1nc(Cl)c(N)nc1N)N[C@@H]1C[N+]2(Cc3cccc(Cl)c3)CCC1CC2` [Example 27] it was 12 nM; in that of `COc1cc(C[N+]23CCC(CC2)[C@H](NC(N)=NC(=O)c2nc(Cl)c(N)nc2N)C3)cc(OC)c1` [Example 28], 80 nM.
For `NC(=NC(=O)c1nc(Cl)c(N)nc1N)N[C@@H]1C[N+]2(Cc3ccc(Cl)s3)CCC1CC2` [Example 29] the value was 29 nM; for `CCN(CC)C(=O)C[N+]12CCC(CC1)[C@H](NC(N)=NC(=O)c1nc(Cl)c(N)nc1N)C2` [Example 30], 35 nM.
In the case of `Cc1nc(C[N+]23CCC(CC2)[C@H](NC(N)=NC(=O)c2nc(Cl)c(N)nc2N)C3)cs1` [Example 31] it was 54 nM; in that of `N#Cc1ccc(C[N+]23CCC(CC2)[C@H](NC(N)=NC(=O)c2nc(Cl)c(N)nc2N)C3)cc1` [Example 32], 202 nM; in that of `N#Cc1cccc(C[N+]23CCC(CC2)[C@H](NC(N)=NC(=O)c2nc(Cl)c(N)nc2N)C3)c1` [Example 33], 38 nM.
Molecule `NC(=NC(=O)c1nc(Cl)c(N)nc1N)N[C@@H]1C[N+]2(CC(=O)NCc3ccccc3)CCC1CC2` [Example 34] came in with an IC50 of 7 nM.
For `NC(=NC(=O)c1nc(Cl)c(N)nc1N)N[C@@H]1C[N+]2(Cc3cscn3)CCC1CC2` [Example 35], the IC50 is 150 nM. This IC50 lies about 21-fold higher than the previous one.
In turn, `NC(=NC(=O)c1nc(Cl)c(N)nc1N)N[C@@H]1C[N+]2(Cc3cc(F)cc(F)c3)CCC1CC2` [Example 36] had an IC50 of 30 nM. This IC50 is about 5-fold lower than that of the molecule before.
For `COc1cccc(C[N+]23CCC(CC2)[C@H](NC(N)=NC(=O)c2nc(Cl)c(N)nc2N)C3)c1OC` [Example 37] the value was 34 nM.
`NC(=NC(=O)c1nc(Cl)c(N)nc1N)N[C@@H]1C[N+]2(Cc3ccc(F)c(F)c3)CCC1CC2` [Example 38] yielded a concentration for half-maximal inhibition (IC50) of 23 nM.
In the case of `NC(=NC(=O)c1nc(Cl)c(N)nc1N)N[C@@H]1C[N+]2(CC(=O)OCc3ccccc3)CCC1CC2` [Example 39] it was 23 nM.
With `NC(=NC(=O)c1nc(Cl)c(N)nc1N)N[C@@H]1C[N+]2(Cc3ccc(CC(=O)O)cc3)CCC1CC2` [Example 40], the IC50 was found to be 625 nM.
In the case of `NC(=NC(=O)c1nc(Cl)c(N)nc1N)N[C@@H]1C[N+]2(CC(=O)c3ccccc3)CCC1CC2` [Example 41] it was 63 nM; in that of `CCOC(=O)C[N+]12CCC(CC1)[C@H](NC(N)=NC(=O)c1nc(Cl)c(N)nc1N)C2` [Example 42], 191 nM; in that of `NC(=NC(=O)c1nc(Cl)c(N)nc1N)N[C@@H]1C[N+]2(CC(=O)NCc3ccc(Cl)cc3)CCC1CC2` [Example 44], 2 nM.
In the case of `NC(=NC(=O)c1nc(Cl)c(N)nc1N)N[C@@H]1C[N+]2(Cc3ccncc3)CCC1CC2` [Example 45] it was 279 nM; in that of `CC(C)(C)OC(=O)c1ccc(C[N+]23CCC(CC2)[C@H](NC(N)=NC(=O)c2nc(Cl)c(N)nc2N)C3)cc1` [Example 46], 267 nM.
For `NC(=NC(=O)c1nc(Cl)c(N)nc1N)N[C@@H]1C[N+]2(Cc3nnsc3Cl)CCC1CC2` [Example 47] the value was 226 nM; for `NC(=NC(=O)c1nc(Cl)c(N)nc1N)N[C@@H]1C[N+]2(Cc3ccc(SC(F)(F)F)cc3)CCC1CC2` [Example 48], 23 nM; for `CC(C)NC(=O)C[N+]12CCC(CC1)[C@H](NC(N)=NC(=O)c1nc(Cl)c(N)nc1N)C2` [Example 49], 29 nM.
`NC(=NC(=O)c1nc(Cl)c(N)nc1N)N[C@@H]1C[N+]2(Cc3cccnc3)CCC1CC2` [Example 50] registered an IC50 of 104 nM.
As to `NC(=NC(=O)c1nc(Cl)c(N)nc1N)N[C@@H]1C[N+]2(Cc3ccc(OC(F)(F)F)cc3)CCC1CC2` [Example 51], half-maximal inhibition (IC50) was put at 89 nM. This IC50 and that of the molecule before are within 1.5-fold of each other.
For `CSc1ccc(C[N+]23CCC(CC2)[C@H](NC(N)=NC(=O)c2nc(Cl)c(N)nc2N)C3)cc1` [Example 52] the value was 67 nM; for `NC(=NC(=O)c1nc(Cl)c(N)nc1N)N[C@@H]1C[N+]2(CC3CCCCC3)CCC1CC2` [Example 53], 70 nM.
In the case of `NC(=NC(=O)c1nc(Cl)c(N)nc1N)N[C@@H]1C[N+]2(Cc3ccccc3OC(F)(F)F)CCC1CC2` [Example 54] it was 69 nM.
As for `NC(=NC(=O)c1nc(Cl)c(N)nc1N)N[C@@H]1C[N+]2(CC(=O)NCCc3ccccc3)CCC1CC2` [Example 55], the IC50 came out at 1 nM. This IC50 lies about 69-fold lower than the previous one.
In the case of `CSc1cccc(C[N+]23CCC(CC2)[C@H](NC(N)=NC(=O)c2nc(Cl)c(N)nc2N)C3)c1` [Example 56] it was 12 nM; in that of `NC(=NC(=O)c1nc(Cl)c(N)nc1N)N[C@@H]1C[N+]2(CC(=O)N3CCOCC3)CCC1CC2` [Example 57], 71 nM; in that of `NC(=NC(=O)c1nc(Cl)c(N)nc1N)N[C@@H]1C[N+]2(CC(=O)Nc3ccccc3)CCC1CC2` [Example 58], 25 nM.
